# Results: patent US20250152592A1, “PHARMACEUTICAL COMPOSITION COMPRISING ALLOPURINOL, FEBUXOSTAT OR PHARMACEUTICALLY ACCEPTABLE SALT THEREOF FOR PREVENTION OR TREATMENT OF CHRONIC KIDNEY DISEASE IN SUBJECT HAVING HIGH SERUM URIC ACID CONCENTRATION” (Indream Healthcare Inc., priority 2022, published 2025)
# Tested on: patients with gout and a history of major cardiovascular diseases
# Experiment: eGFR over time by average serum uric acid concentration, analysis of clinical trial data
# Assay type: in vivo, human
# Conditions: for eGFR Mean (95% CI): allopurinol group
# Protocol: In order to evaluate non-inferiority of febuxostat to allopurinol related to cardiovascular risk, a clinical trial was designed and proceeded.
# A multicenter, randomized, double-blind non-inferiority trial was performed. The details of the clinical trial design have been published previously. An independent data and safety monitoring committee with access to unblinded data monitored the clinical trial. The statistical analysis for the data and the safety monitoring committee was performed by an independent statistical group (WebbWrites).
# The patients were regarded as having a history of major cardiovascular diseases, if they had myocardial infarction, hospitalization for unstable angina, stroke, hospitalization for transient ischemic attack, peripheral vascular disease, or diabetes mellitus symptoms. All participants provided a prior informed consent form.
# The patients were randomly assigned so that they received febuxostat or allopurinol administered once a day in a double-blind manner. The randomization was stratified according to the estimated creatinine clearance at baseline (patient group having an estimated creatinine clearance ≥60 ml per minute vs patient group having an estimated creatinine clearance ≥30 and <60 ml per minute).
# The dose of allopurinol was modified according to a kidney function. The patients with the estimated creatinine clearance 60 ml or more per minute i) initially received allopurinol at a dose of 300 mg once a day, and the dose was increased in 100 mg increments monthly until the patient had the serum uric acid concentration of less than 6.0 mg per deciliter or the dosage of allopurinol was 600 mg once a day. The patient having the estimated creatinine clearance of 30 ml or more and less than 60 ml per minute initially received 200 mg of allopurinol, and then the dose was increased in 100 mg increments until the patient either had the serum uric acid concentration of less than 6.0 mg per deciliter or was receiving the allopurinol dose of 400 mg once daily.
# The dose of febuxostat was not modified according to the kidney function. The patients who were randomly assigned to receive febuxostat initially received 40 mg once a daily, and continued to receive the same dosage if the serum uric acid concentration was less than 6.0 mg per deciliter after 2 weeks of the treatment. If the serum uric acid concentration was higher than 6.0 mg per deciliter at 2nd week visit, the dose of febuxostat was increased to 80 mg once daily for the remainder of the trial.
# During the period, the administration of a double-blind and double-dummy trial medications was guided by an interactive voice-response system which was a procedure to prevent unblinding for the patients whose dose was not adjusted. After completing dose adjustment, the urate level was concealed from the investigators, and the treatment was managed throughout the trial using the interactive voice-response system.
# Outpatient visits were conducted according to the following schedule: during screening and randomization, and at 2, 4, 6, 8, 10, 12, and 24 weeks after the randomization, and every 6 months during the subsequent years of the trial. The patients with reduced kidney function or, the patients aged 65 years or older at randomization were visited at 9 and 15 months for monitoring the serum chemical profile. If the patient agreed to be monitored, but would not return for study visit, telephone contact was made, but such method was not preferred or recommended.
# In order to confirm the effect of allopurinol and febuxostat on the kidney disease, the data obtained in the clinical trial described above was analyzed.
structure (smiles),measurement,setting,value
Oc1ncnc2[nH]ncc12 [allopurinol],eGFR Mean (95% CI),"DBP <80, Average UA ≥6, Week 2",61.16 (59.19-63.13) ml/min/1.73 m^2
same,eGFR Mean (95% CI),"No congestive cardiac failure history, Average UA <6, Baseline",66.85 (65.82-67.88) ml/min/1.73 m^2
same,eGFR Mean (95% CI),"No congestive cardiac failure history, Average UA <6, Month 3",67.32 (66.24-68.40) ml/min/1.73 m^2
same,eGFR Mean (95% CI),"No congestive cardiac failure history, Average UA <6, Month 12",68.74 (67.63-69.86) ml/min/1.73 m^2
same,eGFR Mean (95% CI),"No congestive cardiac failure history, Average UA <6, Month 18",68.64 (67.39-69.88) ml/min/1.73 m^2
same,eGFR Mean (95% CI),"No congestive cardiac failure history, Average UA <6, Month 24",68.73 (67.42-70.03) ml/min/1.73 m^2
same,eGFR Mean (95% CI),"No congestive cardiac failure history, Average UA <6, Month 30",69.45 (68.01-70.89) ml/min/1.73 m^2
same,eGFR Mean (95% CI),"No congestive cardiac failure history, Average UA <6, Month 36",68.02 (66.49-69.55) ml/min/1.73 m^2
same,eGFR Mean (95% CI),"No congestive cardiac failure history, Average UA <6, Month 42",67.59 (65.93-69.25) ml/min/1.73 m^2
same,eGFR Mean (95% CI),"No congestive cardiac failure history, Average UA <6, Month 48",68.44 (66.56-70.31) ml/min/1.73 m^2
same,eGFR Mean (95% CI),"No congestive cardiac failure history, Average UA <6, Month 54",67.90 (65.79-70.00) ml/min/1.73 m^2
same,eGFR Mean (95% CI),"No congestive cardiac failure history, Average UA <6, Month 60",68.53 (66.05-71.01) ml/min/1.73 m^2
same,eGFR Mean (95% CI),"No congestive cardiac failure history, Average UA <6, Week 2",66.55 (65.48-67.62) ml/min/1.73 m^2
same,eGFR Mean (95% CI),"No congestive cardiac failure history, Average UA ≥6, Baseline",66.51 (64.92-68.09) ml/min/1.73 m^2
same,eGFR Mean (95% CI),"No congestive cardiac failure history, Average UA ≥6, Month 12",66.77 (65.07-68.46) ml/min/1.73 m^2
same,eGFR Mean (95% CI),"No congestive cardiac failure history, Average UA ≥6, Month 18",66.07 (64.15-67.99) ml/min/1.73 m^2
same,eGFR Mean (95% CI),"No congestive cardiac failure history, Average UA ≥6, Month 24",65.54 (63.37-67.72) ml/min/1.73 m^2
same,eGFR Mean (95% CI),"No congestive cardiac failure history, Average UA ≥6, Month 30",65.30 (62.89-67.70) ml/min/1.73 m^2
same,eGFR Mean (95% CI),"No congestive cardiac failure history, Average UA ≥6, Month 36",65.27 (62.40-68.13) ml/min/1.73 m^2
same,eGFR Mean (95% CI),"No congestive cardiac failure history, Average UA ≥6, Month 42",63.38 (60.35-66.41) ml/min/1.73 m^2
same,eGFR Mean (95% CI),"No congestive cardiac failure history, Average UA ≥6, Month 48",63.38 (59.80-66.95) ml/min/1.73 m^2
same,eGFR Mean (95% CI),"No congestive cardiac failure history, Average UA ≥6, Month 54",66.44 (62.69-70.18) ml/min/1.73 m^2
same,eGFR Mean (95% CI),"No congestive cardiac failure history, Average UA ≥6, Month 60",63.14 (59.01-67.28) ml/min/1.73 m^2
same,eGFR Mean (95% CI),"No congestive cardiac failure history, Average UA ≥6, Week 2",66.92 (65.28-68.56) ml/min/1.73 m^2
same,eGFR Mean (95% CI),"SBP <130, Average UA <6, Baseline",65.08 (63.67-66.50) ml/min/1.73 m^2
same,eGFR Mean (95% CI),"SBP <130, Average UA <6, Month 3",66.19 (64.73-67.66) ml/min/1.73 m^2
same,eGFR Mean (95% CI),"SBP <130, Average UA <6, Month 6",66.44 (64.96-67.92) ml/min/1.73 m^2
same,eGFR Mean (95% CI),"SBP <130, Average UA <6, Month 12",67.55 (66.04-69.06) ml/min/1.73 m^2
same,eGFR Mean (95% CI),"SBP <130, Average UA <6, Month 18",67.41 (65.73-69.08) ml/min/1.73 m^2
same,eGFR Mean (95% CI),"SBP <130, Average UA <6, Month 24",67.26 (65.46-69.07) ml/min/1.73 m^2
same,eGFR Mean (95% CI),"SBP <130, Average UA <6, Month 30",68.14 (66.20-70.08) ml/min/1.73 m^2
same,eGFR Mean (95% CI),"SBP <130, Average UA <6, Month 36",67.41 (65.30-69.51) ml/min/1.73 m^2
same,eGFR Mean (95% CI),"SBP <130, Average UA <6, Month 42",67.67 (65.45-69.89) ml/min/1.73 m^2
same,eGFR Mean (95% CI),"SBP <130, Average UA <6, Month 48",67.55 (64.98-70.13) ml/min/1.73 m^2
same,eGFR Mean (95% CI),"SBP <130, Average UA <6, Month 54",67.54 (64.81-70.27) ml/min/1.73 m^2
same,eGFR Mean (95% CI),"SBP <130, Average UA <6, Month 60",66.85 (63.63-70.06) ml/min/1.73 m^2
same,eGFR Mean (95% CI),"SBP <130, Average UA <6, Week 2",65.12 (63.70-66.55) ml/min/1.73 m^2
same,eGFR Mean (95% CI),"SBP <130, Average UA ≥6, Baseline",61.00 (58.76-63.25) ml/min/1.73 m^2
same,eGFR Mean (95% CI),"SBP <130, Average UA ≥6, Month 3",62.77 (60.42-65.12) ml/min/1.73 m^2
same,eGFR Mean (95% CI),"SBP <130, Average UA ≥6, Month 6",62.65 (60.33-64.97) ml/min/1.73 m^2
same,eGFR Mean (95% CI),"SBP <130, Average UA ≥6, Month 12",62.21 (59.86-64.55) ml/min/1.73 m^2
same,eGFR Mean (95% CI),"SBP <130, Average UA ≥6, Month 18",62.34 (59.64-65.04) ml/min/1.73 m^2
same,eGFR Mean (95% CI),"SBP <130, Average UA ≥6, Month 24",60.72 (57.61-63.83) ml/min/1.73 m^2
same,eGFR Mean (95% CI),"SBP <130, Average UA ≥6, Month 30",62.43 (59.06-65.81) ml/min/1.73 m^2
same,eGFR Mean (95% CI),"SBP <130, Average UA ≥6, Month 36",61.08 (57.19-64.97) ml/min/1.73 m^2
same,eGFR Mean (95% CI),"SBP <130, Average UA ≥6, Month 42",60.98 (56.66-65.31) ml/min/1.73 m^2
same,eGFR Mean (95% CI),"SBP <130, Average UA ≥6, Month 48",64.66 (59.55-69.76) ml/min/1.73 m^2
same,eGFR Mean (95% CI),"SBP <130, Average UA ≥6, Month 54",64.80 (59.14-70.46) ml/min/1.73 m^2
same,eGFR Mean (95% CI),"SBP <130, Average UA ≥6, Month 60",65.01 (58.65-71.37) ml/min/1.73 m^2
same,eGFR Mean (95% CI),"SBP <130, Average UA ≥6, Week 2",62.24 (60.01-64.47) ml/min/1.73 m^2
same,prevention or treatment of chronic kidney disease when serum uric acid maintained below 6,"blood glucose ≥126 mg/dl, DBP ≤80 mm/Hg, SBP ≤130 mm/Hg, or no congestive cardiac failure",effectively prevented or treated
